Test results published in patent US9187472B2 (AbbVie Inc., priority 2012, dated 2015).

Experiments:
[1] = molecular target: NAMPT (human, recombinant, C-terminally His-tagged) (Homo sapiens, UniProt P43490); assay: Time-Resolved Fluorescence Resonance Energy Transfer (TR-FRET) Binding Assay of NAMPT; conditions: without substrates; 6.8 nM NAMPT, 200 nM probe, 3 hours equilibration
Method in brief: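 Read-out is the time-resolved FRET ratio Em520/Em495 (excitation 337 nm) between a terbium anti-His antibody (1 nM) on the enzyme and an Oregon Green 488-labelled nicotinamide-competitive inhibitor probe (200 nM). Enzyme was 6.8 nM, DMSO 2%, pH 7.5 HEPES buffer; 3 h room-temperature equilibration preceded reading.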

[2] = molecular target: NAMPT (Homo sapiens, UniProt P43490); assay: TR-FRET Binding Assay of NAMPT with PRPP; conditions: with 200 μM PRPP and 2.5 mM ATP; 2 nM NAMPT, 2 nM probe, 16 hours equilibration
Method in brief: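 NAMPT 2 nM + probe 2 nM + Tb-anti-His Ab 1 nM; PRPP 200 μM, ATP 2.5 mM, DMSO 2%; 16 h equilibration before TR-FRET read.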

[3] = tested on: PC3 cells; assay: NAMPT Cell Proliferation Assay; format: cell-based; conditions: Homo sapiens, PC-3, 120 h, 5 days incubation, cell viability by Cell Titer Glo
Method in brief: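 Cell Titer Glo viability after 5-day exposure (37° C, 5% CO2); PC3, 500 cells/well, RPMI + 10% heat-inactivated FBS, overnight attachment before dosing. Dose range 10 μM to 1×10^−5 μM, 10-fold steps. IC50 = sigmoidal fit of % inhibition.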

NAMPT, sequence (P43490 whole entry): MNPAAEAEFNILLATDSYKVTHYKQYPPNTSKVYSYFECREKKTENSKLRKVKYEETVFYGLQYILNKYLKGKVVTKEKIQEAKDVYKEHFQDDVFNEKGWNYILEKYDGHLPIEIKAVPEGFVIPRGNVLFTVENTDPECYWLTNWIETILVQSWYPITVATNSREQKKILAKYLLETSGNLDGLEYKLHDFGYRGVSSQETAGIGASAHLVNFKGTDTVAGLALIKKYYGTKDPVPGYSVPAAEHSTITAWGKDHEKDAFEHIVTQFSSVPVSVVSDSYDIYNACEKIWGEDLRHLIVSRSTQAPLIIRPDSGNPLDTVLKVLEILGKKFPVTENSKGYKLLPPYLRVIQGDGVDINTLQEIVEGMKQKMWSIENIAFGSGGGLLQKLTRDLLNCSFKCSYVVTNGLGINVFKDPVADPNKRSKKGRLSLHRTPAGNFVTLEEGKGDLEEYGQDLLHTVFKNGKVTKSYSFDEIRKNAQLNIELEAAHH
NAMPT (human, recombinant, C-terminally His-tagged), sequence (P43490 whole entry): as above

Row | SMILES | IC50 [1] [µM] | IC50 [2] [µM] | IC50 [3] [µM]
1 | O=C(NCc1ccc2nccn2c1)c1ccc(C2=CCN(C(=O)CC3CCCC3)CC2)cc1 [Example 97, 4-[1-(cyclopentylacetyl)-1,2,3,6-tetrahydropyridin-4-yl]-N-(imidazo[1,2-a]pyridin-6-ylmethyl)benzamide] | 0.109 | 0.000333 | 0.00455
2 | O=C(NCc1ccn2ccnc2c1)c1cnc(N2CC(CO)OC2=O)s1 (stereo not drawn) [Example 251, 2-[5-(hydroxymethyl)-2-oxo-1,3-oxazolidin-3-yl]-N-(imidazo[1,2-a]pyridin-7-ylmethyl)-1,3-thiazole-5-carboxamide] | 2.2 | 0.00063 | 1.84
3 | CC(C)OCCNC(=O)N(C[C@@H]1CCCO1)c1ncc(C(=O)NCc2ccc3nccn3c2)s1 [Example 156, N-(imidazo[1,2-a]pyridin-6-ylmethyl)-2-({[2-(propan-2-yloxy)ethyl]carbamoyl}[(2S)-tetrahydrofuran-2-ylmethyl]amino)-1,3-thiazole-5-carboxamide] | 3.27 | 0.00318 | 0.028
4 | CS(=O)(=O)CCn1cc(-c2ccc(C(=O)NCc3ccn4ccnc4c3)s2)cn1 [Example 300, N-(imidazo[1,2-a]pyridin-7-ylmethyl)-5-{1-[2-(methylsulfonyl)ethyl]-1H-pyrazol-4-yl}thiophene-2-carboxamide] | 0.0614 | 0.000169 | 0.0287
5 | O=C(NCc1ccn2ccnc2c1)c1ccc(C2=CCN(S(=O)(=O)C3CC3)CC2)s1 [Example 246, 5-[1-(cyclopropylsulfonyl)-1,2,3,6-tetrahydropyridin-4-yl]-N-(imidazo[1,2-a]pyridin-7-ylmethyl)thiophene-2-carboxamide] | 0.0732 | 0.00022 | 0.00243
6 | O=C(NCc1ccc2nccn2c1)c1ccc(OC2CCN(C(=O)[C@@H]3CCCO3)CC2)cc1 [Example 164, N-(imidazo[1,2-a]pyridin-6-ylmethyl)-4-({1-[(2S)-tetrahydrofuran-2-ylcarbonyl]piperidin-4-yl}oxy)benzamide] | 2.46 | 0.00346 | 0.101
7 | O=C(NCc1ccn2ccnc2c1)c1ccc(C2CCN(C(=O)CC3CCOCC3)CC2)cc1 [Example 236, N-(imidazo[1,2-a]pyridin-7-ylmethyl)-4-[1-(tetrahydro-2H-pyran-4-ylacetyl)piperidin-4-yl]benzamide] | 0.604 | 0.000243 | 0.0138
8 | CC(C)(C)OC(=O)N1CCC(CCCCNC(=O)Nc2ccc3nccn3c2)CC1 [Example 58, tert-butyl 4-{4-[(imidazo[1,2-a]pyridin-6-ylcarbamoyl)amino]butyl}piperidine-1-carboxylate] | 0.523 | 0.00143 | 0.0526
9 | CC(C)C(=O)N1CCC(c2ccc(C(=O)NCc3ccn4ccnc4c3)cc2)CC1 [Example 239, N-(imidazo[1,2-a]pyridin-7-ylmethyl)-4-[1-(2-methylpropanoyl)piperidin-4-yl]benzamide] | 0.308 | 0.000771 | 0.0177
10 | O=C(NCc1ccn2ccnc2c1)Nc1ccc(O[C@@H]2CCN(C(=O)C3CC3)C2)cc1 [Example 331, 1-(4-{[(3R)-1-(cyclopropylcarbonyl)pyrrolidin-3-yl]oxy}phenyl)-3-(imidazo[1,2-a]pyridin-7-ylmethyl)urea] | 0.383 | 0.000416 | 0.227
11 | CC(=O)N1CCC(c2ccc(C(=O)NCc3ccn4ccnc4c3)cc2)CC1 [Example 313, 4-(1-acetylpiperidin-4-yl)-N-(imidazo[1,2-a]pyridin-7-ylmethyl)benzamide] | 0.531 | 0.00036 | 0.82
12 | O=C(NCc1ccn2ccnc2c1)c1cnc(N2C(=O)CC[C@H]2CO)s1 [Example 244, 2-[(2S)-2-(hydroxymethyl)-5-oxopyrrolidin-1-yl]-N-(imidazo[1,2-a]pyridin-7-ylmethyl)-1,3-thiazole-5-carboxamide] | > 10 | 0.00169 | 7.04

Continued, values first:

Row | IC50 [1] [µM] | IC50 [2] [µM] | IC50 [3] [µM] | SMILES
13 | 0.036 | 0.000169 | 0.00746 | O=C(NCc1ccn2ccnc2c1)c1ccc(-c2cnn(CC3CCCS(=O)(=O)C3)c2)s1 (stereo not drawn) [Example 344, 5-{1-[(1,1-dioxidotetrahydro-2H-thiopyran-3-yl)methyl]-1H-pyrazol-4-yl}-N-(imidazo[1,2-a]pyridin-7-ylmethyl)thiophene-2-carboxamide]
14 | 0.0215 | 0.000169 | 0.0021 | O=C(NCc1ccn2ccnc2c1)c1ccc(C2CCN(C(=O)c3ccccc3F)C2)s1 (stereo not drawn) [Example 776, 5-[1-(2-fluorobenzoyl)pyrrolidin-3-yl]-N-(imidazo[1,2-a]pyridin-7-ylmethyl)thiophene-2-carboxamide]
15 | 0.146 | 0.000435 | 0.0215 | CC(C)(C)OC(=O)N1CCC(Oc2ccc(NC(=O)NCc3ccn4ccnc4c3)cc2)CC1 [Example 366, tert-butyl 4-(4-{[(imidazo[1,2-a]pyridin-7-ylmethyl)carbamoyl]amino}phenoxy)piperidine-1-carboxylate]
16 | 0.154 | 0.000932 | 0.0716 | O=C(NCc1ccn2ccnc2c1)Nc1ccc(C2CCN(C(=O)c3ccc(F)c(F)c3)CC2)cc1 [Example 723, 1-{4-[1-(3,4-difluorobenzoyl)piperidin-4-yl]phenyl}-3-(imidazo[1,2-a]pyridin-7-ylmethyl)urea]
17 | 0.0644 | 0.000907 | 0.0098 | O=C(NCc1ccn2ccnc2c1)c1ccc(C2CCN(C(=O)c3ccco3)C2)s1 (stereo not drawn) [Example 783, 5-[1-(furan-2-ylcarbonyl)pyrrolidin-3-yl]-N-(imidazo[1,2-a]pyridin-7-ylmethyl)thiophene-2-carboxamide]
18 | 0.192 | 0.00024 | 0.0312 | O=C(NCc1ccn2ccnc2c1)c1ccc(-c2cnn(CC3CCOC3)c2)o1 (stereo not drawn) [Example 478, N-(imidazo[1,2-a]pyridin-7-ylmethyl)-5-[1-(tetrahydrofuran-3-ylmethyl)-1H-pyrazol-4-yl]furan-2-carboxamide]
19 | 0.143 | 0.000334 | 0.0833 | CCCn1cc(-c2ccc(NC(=O)NCc3ccn4ccnc4c3)cc2)cn1 [Example 487, 1-(imidazo[1,2-a]pyridin-7-ylmethyl)-3-[4-(1-propyl-1H-pyrazol-4-yl)phenyl]urea]
20 | > 10 | 0.0019 | 7.83 | CC(C)(C)OC(=O)N1CCC(c2ccc(C(=O)Nc3ccc4ncc(Cl)n4c3)cc2)CC1 [Example 491, tert-butyl 4-{4-[(3-chloroimidazo[1,2-a]pyridin-6-yl)carbamoyl]phenyl}piperidine-1-carboxylate]
21 | 0.119 | 0.000204 | 0.0838 | O=C(NCc1ccn2ccnc2c1)Nc1ccc(C2CCN(C(=O)CC3CC3)C2)cc1 (stereo not drawn) [Example 382]
22 | 0.711 | 0.000911 | 0.0332 | CCC(C)CC(=O)N1CCC(c2ccc(C(=O)NCc3ccn4ccnc4c3)cc2)C1 (stereo not drawn) [Example 582, N-(imidazo[1,2-a]pyridin-7-ylmethyl)-4-[1-(3-methylpentanoyl)pyrrolidin-3-yl]benzamide]
23 | 0.388 | 0.000506 | 0.122 | O=C(NCc1ccn2ccnc2c1)Nc1ccc(C2CCN(C(=O)[C@H]3CCOC3)C2)cc1 (stereo partly drawn) [Example 388, 1-(imidazo[1,2-a]pyridin-7-ylmethyl)-3-(4-{1-[(3S)-tetrahydrofuran-3-ylcarbonyl]pyrrolidin-3-yl}phenyl)urea]
24 | 0.215 | 0.000713 | 0.0581 | O=C(NCc1ccn2ccnc2c1)c1ccc(C2CN(C(=O)c3ccco3)C2)cc1 [Example 639, 4-[1-(furan-2-ylcarbonyl)azetidin-3-yl]-N-(imidazo[1,2-a]pyridin-7-ylmethyl)benzamide]
25 | 0.0199 | 0.000624 | 0.013 | CC(C)Cn1cc(-c2ccc(C(=O)NCc3cn4ccnc4cn3)o2)cn1 [Example 819, N-(imidazo[1,2-a]pyrazin-6-ylmethyl)-5-[1-(2-methylpropyl)-1H-pyrazol-4-yl]furan-2-carboxamide]
26 | 1.24 | 0.001 | 0.755 | CC(C)CS(=O)(=O)N1CCC(c2ncc(C(=O)NCc3ccn4ccnc4c3)s2)C1 (stereo not drawn) [Example 751, N-(imidazo[1,2-a]pyridin-7-ylmethyl)-2-{1-[(2-methylpropyl)sulfonyl]pyrrolidin-3-yl}-1,3-thiazole-5-carboxamide]
27 | 0.646 | 0.00071 | 0.223 | O=C(NCc1ccn2ccnc2c1)c1ccc(C2CN(C(=O)c3cccnc3)C2)cc1 [Example 659, N-(imidazo[1,2-a]pyridin-7-ylmethyl)-4-[1-(pyridin-3-ylcarbonyl)azetidin-3-yl]benzamide]
28 | 0.145 | 0.000427 | 0.0425 | O=C(NCc1ccn2ccnc2c1)Nc1ccc(C2=CCN(C(=O)c3ccccc3)CC2)cc1F [Example 438, 1-[4-(1-benzoyl-1,2,3,6-tetrahydropyridin-4-yl)-2-fluorophenyl]-3-(imidazo[1,2-a]pyridin-7-ylmethyl)urea]
